# Data: PMC8369832, “Purification and Characterization of a Thermo- and pH-Stable Laccase From the Litter-Decomposing Fungus Gymnopus luxurians and Laccase Mediator Systems for Dye Decolorization” (Frontiers in Microbiology, 2021)
# System: T1, GLL (purified laccase from Gymnopus luxurians)
# T1 construct: native extracellular enzyme purified from fermentation broth; monomer, 64 kDa (SDS-PAGE and gel filtration); N-terminus AIGPVTDLHI; gene not cloned; N-terminus very unlike hypothetical G. luxurians laccases KIK69235.1, KIK58304.1, KIK56882.1
# Experiment: spectrophotometric oxidation at […] nm, Lineweaver-Burk plot
# Assay type: biochemical, Collybiopsis luxurians
# Conditions: pH 2.2 (50 mM citric acid-Na2HPO4), 37 °C; ABTS 12.5-800 μM; free enzyme
structure (smiles),measurement,value
"CCn1c(=NN=c2sc3cc(S(=O)(=O)O)ccc3n2CC)sc2cc(S(=O)(=O)O)ccc21 [ABTS, 2,2′-azino-bis(3-ethylbenzothiazoline-6-sulfonic acid)]",Km,539 µM
